In ChEMBL document CHEMBL3124843, “Synthesis, cytostatic, antimicrobial, and anti-HCV activity of 6-substituted 7-(het)aryl-7-deazapurine ribonucleosides” (J Med Chem, 2014):

System: Mycobacterium tuberculosis
Test: Antimycobacterial activity against Mycobacterium bovis BCG after 5 days by MTT assay
Type: functional, organism-based
Conditions: variant bovis BCG, 120 h

SMILES | IC50 [µM]
O=c1[nH]cnc2c1c(-c1cc3ccccc3o1)cn2[C@@H]1O[C@H](CO)[C@@H](O)[C@H]1O | > 100
Nc1ncnc2c1c(-c1ccco1)cn2[C@@H]1O[C@H](CO)[C@@H](O)[C@H]1O | 17.4
Nc1nc(N)c2c(-c3cccs3)cn([C@@H]3O[C@H](CO)[C@@H](O)[C@H]3O)c2n1 | 2.44
CN(C)c1ncnc2c1c(I)cn2[C@@H]1O[C@H](CO)[C@@H](O)[C@H]1O | > 100
C#Cc1cn([C@@H]2O[C@H](CO)[C@@H](O)[C@H]2O)c2ncnc(N(C)C)c12 | > 100
Cc1nc(N)c2c(-c3ccccc3)cn([C@@H]3O[C@H](CO)[C@@H](O)[C@H]3O)c2n1 | > 100
COc1ncnc2c1c(I)cn2[C@@H]1O[C@H](CO)[C@@H](O)[C@H]1O | > 100
Cc1ncnc2c1c(I)cn2[C@@H]1O[C@H](CO)[C@@H](O)[C@H]1O | 51.4
Cc1ncnc2c1c(Br)cn2[C@@H]1O[C@H](CO)[C@@H](O)[C@H]1O | 20.8
CN(C)c1ncnc2c1c(-c1ccco1)cn2[C@@H]1O[C@H](CO)[C@@H](O)[C@H]1O | > 100
CSc1ncnc2c1c(-c1cccs1)cn2[C@@H]1O[C@H](CO)[C@@H](O)[C@H]1O | > 100
Cc1nc(N)c2c(-c3ccoc3)cn([C@@H]3O[C@H](CO)[C@@H](O)[C@H]3O)c2n1 | > 100
O=c1[nH]cnc2c1c(-c1ccsc1)cn2[C@@H]1O[C@H](CO)[C@@H](O)[C@H]1O | > 100
COc1ncnc2c1c(-c1cccs1)cn2[C@@H]1O[C@H](CO)[C@@H](O)[C@H]1O | > 100
COc1ncnc2c1ccn2[C@@H]1O[C@H](CO)[C@@H](O)[C@H]1O | > 100
O=c1[nH]cnc2c1c(-c1ccco1)cn2[C@@H]1O[C@H](CO)[C@@H](O)[C@H]1O | > 100
CNc1ncnc2c1c(I)cn2[C@@H]1O[C@H](CO)[C@@H](O)[C@H]1O | 99.9
C#Cc1cn([C@@H]2O[C@H](CO)[C@@H](O)[C@H]2O)c2nc(C)nc(N)c12 | > 100
C#Cc1cn([C@@H]2O[C@H](CO)[C@@H](O)[C@H]2O)c2ncnc(NC)c12 | > 100
Cc1ncnc2c1c(-c1ccco1)cn2[C@@H]1O[C@H](CO)[C@@H](O)[C@H]1O | 38.9
Nc1nc(N)c2c(-c3ccccc3)cn([C@@H]3O[C@H](CO)[C@@H](O)[C@H]3O)c2n1 | 8.53

SMILES | IC50 [µM]
CN(C)c1ncnc2c1c(-c1ccoc1)cn2[C@@H]1O[C@H](CO)[C@@H](O)[C@H]1O | > 100
CSc1ncnc2c1c(-c1ccsc1)cn2[C@@H]1O[C@H](CO)[C@@H](O)[C@H]1O | 98.6
Cc1ncnc2c1c(-c1ccccc1)cn2[C@@H]1O[C@H](CO)[C@@H](O)[C@H]1O | 26.5
COc1nc(N)nc2c1c(-c1cc3ccccc3o1)cn2[C@@H]1O[C@H](CO)[C@@H](O)[C@H]1O | > 100
C#Cc1cn([C@@H]2O[C@H](CO)[C@@H](O)[C@H]2O)c2nc(N)nc(OC)c12 | > 100
CSc1ncnc2c1c(-c1ccoc1)cn2[C@@H]1O[C@H](CO)[C@@H](O)[C@H]1O | > 100
C#Cc1cn([C@@H]2O[C@H](CO)[C@@H](O)[C@H]2O)c2ncnc(OC)c12 | > 100
Cc1nc(N)c2c(-c3cc4ccccc4o3)cn([C@@H]3O[C@H](CO)[C@@H](O)[C@H]3O)c2n1 | > 100
Nc1nc(N)c2c(-c3ccsc3)cn([C@@H]3O[C@H](CO)[C@@H](O)[C@H]3O)c2n1 | > 100
Nc1nc2c(c(-c3ccsc3)cn2[C@@H]2O[C@H](CO)[C@@H](O)[C@H]2O)c(=O)[nH]1 | > 100
O=c1[nH]cnc2c1c(-c1ccccc1)cn2[C@@H]1O[C@H](CO)[C@@H](O)[C@H]1O | > 100
C#Cc1cn([C@@H]2O[C@H](CO)[C@@H](O)[C@H]2O)c2ncnc(C)c12 | 42.9
O=c1[nH]cnc2c1c(-c1ccoc1)cn2[C@@H]1O[C@H](CO)[C@@H](O)[C@H]1O | > 100
Cc1nc(N)c2c(-c3ccco3)cn([C@@H]3O[C@H](CO)[C@@H](O)[C@H]3O)c2n1 | > 100
CNc1ncnc2c1c(-c1ccoc1)cn2[C@@H]1O[C@H](CO)[C@@H](O)[C@H]1O | > 100
Cc1ncnc2c1c(-c1ccsc1)cn2[C@@H]1O[C@H](CO)[C@@H](O)[C@H]1O | 18.5
COc1ncnc2c1c(-c1ccsc1)cn2[C@@H]1O[C@H](CO)[C@@H](O)[C@H]1O | > 100
Nc1nc2c(c(-c3cccs3)cn2[C@@H]2O[C@H](CO)[C@@H](O)[C@H]2O)c(=O)[nH]1 | > 100
Cc1ncnc2c1ccn2[C@@H]1O[C@H](CO)[C@@H](O)[C@H]1O | 0.3
Nc1nc(N)c2c(-c3ccoc3)cn([C@@H]3O[C@H](CO)[C@@H](O)[C@H]3O)c2n1 | 71.5
COc1nc(N)nc2c1c(-c1cccs1)cn2[C@@H]1O[C@H](CO)[C@@H](O)[C@H]1O | > 100

SMILES | IC50 [µM]
Nc1nc2c(c(-c3cc4ccccc4o3)cn2[C@@H]2O[C@H](CO)[C@@H](O)[C@H]2O)c(=O)[nH]1 | > 100
Cc1ncnc2c1c(-c1ccoc1)cn2[C@@H]1O[C@H](CO)[C@@H](O)[C@H]1O | 9.3
COc1nc(N)nc2c1c(-c1ccoc1)cn2[C@@H]1O[C@H](CO)[C@@H](O)[C@H]1O | > 100
Cc1nc(N)c2c(I)cn([C@@H]3O[C@H](CO)[C@@H](O)[C@H]3O)c2n1 | > 100
CSc1ncnc2c1ccn2[C@@H]1O[C@H](CO)[C@@H](O)[C@H]1O | 96.8
CNc1ncnc2c1c(-c1ccccc1)cn2[C@@H]1O[C@H](CO)[C@@H](O)[C@H]1O | > 100
Nc1ncnc2c1c(-c1cccs1)cn2[C@@H]1O[C@H](CO)[C@@H](O)[C@H]1O | 4.73
COc1nc(N)nc2c1c(-c1ccsc1)cn2[C@@H]1O[C@H](CO)[C@@H](O)[C@H]1O | > 100
CNc1ncnc2c1ccn2[C@@H]1O[C@H](CO)[C@@H](O)[C@H]1O | 87.1
CNc1ncnc2c1c(-c1cc3ccccc3o1)cn2[C@@H]1O[C@H](CO)[C@@H](O)[C@H]1O | > 100
Nc1nc(N)c2c(-c3cc4ccccc4o3)cn([C@@H]3O[C@H](CO)[C@@H](O)[C@H]3O)c2n1 | 24.6
Nc1nc2c(c(-c3ccco3)cn2[C@@H]2O[C@H](CO)[C@@H](O)[C@H]2O)c(=O)[nH]1 | > 100
CN(C)c1ncnc2c1c(-c1ccccc1)cn2[C@@H]1O[C@H](CO)[C@@H](O)[C@H]1O | > 100
COc1ncnc2c1c(-c1ccoc1)cn2[C@@H]1O[C@H](CO)[C@@H](O)[C@H]1O | > 100
CNc1ncnc2c1c(-c1ccco1)cn2[C@@H]1O[C@H](CO)[C@@H](O)[C@H]1O | > 100
CN(C)c1ncnc2c1c(-c1cc3ccccc3o1)cn2[C@@H]1O[C@H](CO)[C@@H](O)[C@H]1O | > 100
COc1nc(N)nc2c1c(-c1ccco1)cn2[C@@H]1O[C@H](CO)[C@@H](O)[C@H]1O | > 100
CNc1ncnc2c1c(-c1cccs1)cn2[C@@H]1O[C@H](CO)[C@@H](O)[C@H]1O | > 100
COc1ncnc2c1c(-c1ccco1)cn2[C@@H]1O[C@H](CO)[C@@H](O)[C@H]1O | > 100
COc1ncnc2c1c(-c1cc3ccccc3o1)cn2[C@@H]1O[C@H](CO)[C@@H](O)[C@H]1O | 73.5
O=c1[nH]cnc2c1c(-c1cccs1)cn2[C@@H]1O[C@H](CO)[C@@H](O)[C@H]1O | > 100

SMILES | IC50 [µM]
Nc1nc(N)c2c(-c3ccco3)cn([C@@H]3O[C@H](CO)[C@@H](O)[C@H]3O)c2n1 | 84
Cc1nc(N)c2c(-c3cccs3)cn([C@@H]3O[C@H](CO)[C@@H](O)[C@H]3O)c2n1 | 82.7
Cc1nc(N)c2ccn([C@@H]3O[C@H](CO)[C@@H](O)[C@H]3O)c2n1 | > 100
COc1ncnc2c1c(-c1ccccc1)cn2[C@@H]1O[C@H](CO)[C@@H](O)[C@H]1O | > 100
CSc1ncnc2c1c(-c1cc3ccccc3o1)cn2[C@@H]1O[C@H](CO)[C@@H](O)[C@H]1O | > 100
Cc1ncnc2c1c(-c1cc3ccccc3o1)cn2[C@@H]1O[C@H](CO)[C@@H](O)[C@H]1O | 2.1
CSc1ncnc2c1c(I)cn2[C@@H]1O[C@H](CO)[C@@H](O)[C@H]1O | 87.1
CN(C)c1ncnc2c1c(-c1cccs1)cn2[C@@H]1O[C@H](CO)[C@@H](O)[C@H]1O | > 100
Cc1nc(N)c2c(-c3ccsc3)cn([C@@H]3O[C@H](CO)[C@@H](O)[C@H]3O)c2n1 | > 100
Cc1ncnc2c1c(-c1cccs1)cn2[C@@H]1O[C@H](CO)[C@@H](O)[C@H]1O | 14
CSc1ncnc2c1c(-c1ccco1)cn2[C@@H]1O[C@H](CO)[C@@H](O)[C@H]1O | > 100
CNc1ncnc2c1c(-c1ccsc1)cn2[C@@H]1O[C@H](CO)[C@@H](O)[C@H]1O | > 100
Nc1nc2c(c(-c3ccoc3)cn2[C@@H]2O[C@H](CO)[C@@H](O)[C@H]2O)c(=O)[nH]1 | > 100
CN(C)c1ncnc2c1ccn2[C@@H]1O[C@H](CO)[C@@H](O)[C@H]1O | > 100
CN(C)c1ncnc2c1c(-c1ccsc1)cn2[C@@H]1O[C@H](CO)[C@@H](O)[C@H]1O | > 100
CSc1ncnc2c1c(-c1ccccc1)cn2[C@@H]1O[C@H](CO)[C@@H](O)[C@H]1O | > 100
COc1nc(N)nc2c1c(-c1ccccc1)cn2[C@@H]1O[C@H](CO)[C@@H](O)[C@H]1O | > 100
C#Cc1cn([C@@H]2O[C@H](CO)[C@@H](O)[C@H]2O)c2ncnc(SC)c12 | > 100
Nc1nc2c(c(-c3ccccc3)cn2[C@@H]2O[C@H](CO)[C@@H](O)[C@H]2O)c(=O)[nH]1 | > 100
